{"source": "patent US11458146B2", "about": "“Compositions and methods for the treatment of myelin related and inflammation related diseases or disorders” (Duke University, priority 2017, dated 2022)", "key": {"[1]": {"test_system": "naïve CD4+ T cells", "assay": "TH17 polarization of naïve CD4+ T cells in vitro (flow cytometry, IL-17 production)", "type": "cell-based, rodent", "conditions": "for cells polarized into the TH17 population: control cells 7.8%; for TH17 polarization (in words, FIG. 8): flow cytometry", "method": "Naïve CD4 T cells were isolated from rodent spleen tissue using CD4 magnetic beads. CD4+ lymphocytes were cultured on plates coated with anti-CD3 antibody and anti-CD28 antibodies in the presence of rTGFb, rIL-6, and rIL-23 for 5 days. Four hours prior to flow cytometry analysis, the cells were stimulated with PMA, ionomycin, and Brefeldin A. The cells were then analyzed for IL-17 production (FIG. 8, wherein CD4+ T cell culture in the presence of CD3/CD28-coated beads with IMDM media containing rTGFβ (4 ng/ml), rIL-6 (20 ng/ml), rIL-23 (50 ng/ml), anti-IL-4 Ab, and anti-IFNg Ab with or without GW or HC for 5 days. PMA (50 ng/ml), Ionomycin (500 ng/ml) for […], and Brefeldin A (10 μg/ml) for last 3 h)). 7.8% of the control cells polarized into the TH17 population. The LXR agonist GW3965 prevented TH17 polarization (2.6%)."}, "[2]": {"test_system": "Primary neural stem cells", "assay": "in vitro screening method for oligodendrogenesis (CNPase+ cell count)", "type": "cell-based, mice", "conditions": "exposed five days, differentiated 15-18 days; compared to media control", "excerpt": "Primary neural stem cells generated from mice were screened for oligodendrogenic potential after treatment with 20HC, 22HC, 24HC, 25HC, and 27HC. Neural stem cells in 8-well chamber slides were exposed to the indicated oxysterol for five days, and then allowed to differentiate for 15-18 days. Following differentiation, cells were fixed and stained for oligodendrocyte markers CNPase and myelin basic protein (MBP) (FIG. 6A). Stained cells were randomly sampled with a 40× objective, using Stereo Investigator software to eliminate bias, while quantifying the number of oligodendrocytes. Each condition was sampled at 10-12 computer selected sites. Images were used to count the number of nucleated CNPase+ cells per high power field (HPF)."}, "[3]": {"test_system": "Primary neural stem cells", "assay": "oligodendrocyte differentiation from neural stem cells, western blot for CNPase and MBP", "type": "cell-based", "conditions": "1 μm and 0.5 μm for five days, then differentiation for 18 days", "method": "FIG. 5 is a western blot analysis. Stem cells were treated with oxysterols at doses indicated for 5 days then allowed to differentiate for 18 days. Protein lysates were probed for oligodendrocyte-associated proteins CNPase and myelin basic protein (MBP). Primary neural stem cells were treated with 24-hydroxycholesterol and 25-hydroxycholesterol at 1 μm and 0.5 μm for five days, then allowed to differentiate for 18 days. Protein lysates were probed for oligodendrocyte-associated proteins CNPase and myelin basic protein (MBP)."}, "[4]": {"target": "smoothened (SMO) (Homo sapiens, UniProt Q99835)", "sequence (Q99835 28-787)": "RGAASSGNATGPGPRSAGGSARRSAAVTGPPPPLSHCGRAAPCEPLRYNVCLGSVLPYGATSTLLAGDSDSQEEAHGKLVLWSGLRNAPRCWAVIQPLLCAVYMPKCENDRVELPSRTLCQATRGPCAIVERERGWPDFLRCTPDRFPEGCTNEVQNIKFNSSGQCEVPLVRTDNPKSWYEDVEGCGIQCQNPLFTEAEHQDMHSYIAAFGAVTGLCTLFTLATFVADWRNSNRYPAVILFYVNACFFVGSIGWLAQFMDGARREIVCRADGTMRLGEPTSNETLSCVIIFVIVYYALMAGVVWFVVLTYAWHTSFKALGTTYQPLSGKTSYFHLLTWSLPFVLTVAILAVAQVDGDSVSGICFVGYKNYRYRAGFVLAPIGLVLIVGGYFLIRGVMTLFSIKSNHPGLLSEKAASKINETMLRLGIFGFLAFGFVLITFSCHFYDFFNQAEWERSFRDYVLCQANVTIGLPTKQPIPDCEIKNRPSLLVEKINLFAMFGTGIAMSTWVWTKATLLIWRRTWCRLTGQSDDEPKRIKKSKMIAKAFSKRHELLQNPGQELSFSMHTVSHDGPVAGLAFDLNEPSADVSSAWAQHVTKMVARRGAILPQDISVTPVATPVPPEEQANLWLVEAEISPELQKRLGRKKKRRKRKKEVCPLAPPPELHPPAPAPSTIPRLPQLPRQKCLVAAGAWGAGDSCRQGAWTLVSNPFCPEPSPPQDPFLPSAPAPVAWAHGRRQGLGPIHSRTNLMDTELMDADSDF", "conditions": "fibroblast cell culture systems; recent studies; cited from earlier work"}, "[5]": {"test_system": "NF-κB", "assay": "NF-κB activation in LPS-treated primary splenic monocytes (western blot)", "type": "cell-based, mice", "conditions": "1 μm 20HC for 24 hours, then 500 ng/mL LPS", "method": "FIG. 7 is a Western blot showing the 20HC inhibition of NFκB pathway in primary splenic monocytes. Primary monocytes were exposed to media, 20HC (24 hour)+LPS (500 ng/ml), or LPS alone for 4 hours. 20HC prevented IκB degradation and p65 phosphorylation in LPS treated cells.\nSplenocytes where harvested from postnatal day 12 mice. Monocytes were negatively selected using anti-CD3, CD19 magnetic beads. Cells were treated with vehicle control (DMSO) or 1 μm 20HC for 24 hours. After exposure to 20HC, monocytes were treated with 500 ng/mL of lipopolysaccharide (LPS) to activate the TLR4 receptor and activate NF-κB. Compared to control cells, LPS-treated cells degraded I-κB and phosphorylated p65 consistent with NF-κB activation (FIG. 7). I-κB degradation and phosphorylation of p65 was blocked in 20HC-treated monocytes."}, "[6]": {"test_system": "EAE induced with MOG35-55 peptide in C57BL/6J mice", "assay": "experimental allergic encephalitis (EAE) mouse model", "type": "in vivo", "method": "EAE was induced using myelin oligodendrocyte glycoprotein (MOG35-55) peptide using standard approaches (see, e.g., Bittner et al., J. Vis. Exp., 86: 51275 (2014); and Miller et al., Curr Protoc Immunol., Unit-15.1 (2007)) in 15 wild-type 8 week old C57BL/6J mice. TH17 T cell populations are pathogenic in the EAE model and have been implicated in multiple sclerosis (MS). Seven mice (3 male, 4 female) proceeded without further intervention while 8 mice (3 female and 5 male) were given daily 125 μL subcutaneous injections of 20HC resuspended in corn oil (10 mg/mL) two days prior to EAE induction and through day 14, just prior to peak clinical severity. Mice were scored daily for the development of ascending paralysis that is indicative of the development of EAE. In vivo treatment of mice with 20HC (50 mg/kg/day) disrupted the development of MS-like symptoms in the EAE model, as shown in FIGS. 9A and 9B."}, "[7]": {"test_system": "perinatal white matter injury in neonatal mice", "assay": "mouse model of perinatal white matter injury (simulated bowel perforation and sepsis)", "type": "in vivo", "method": "Perinatal bowel perforation is a common complication of premature birth and is strongly linked to myelin injury and cerebral palsy. A mouse model of perinatal white matter injury was developed. The model simulates a perinatal bowel perforation and sepsis by injection of donor cecal contents into the peritoneal cavity of neonatal mice on postnatal day 5. Using this model, the efficacy of 25-hydroxycholesterol in reversing white matter injury was tested. […] Breast-milk associated 25-HC reversed diffuse white matter injury. The cells were stained with oligodendrocyte marker CC1. 40× high power fields (PHF) were imaged."}}, "note": "Entries after “also recorded” stand apart in the source; their conditions may differ.", "data": [{"compound": "O=C(O)Cc1cccc(OCCCN(Cc2cccc(C(F)(F)F)c2Cl)CC(c2ccccc2)c2ccccc2)c1", "note": "[GW3965, reference compound]", "values": [{"measurement": "cells polarized into the TH17 population", "setting": "[1]; 5 days culture", "result": 2.6, "unit": "%"}]}, {"compound": "C[C@@H](CO)CCC[C@@H](C)[C@H]1CC[C@H]2[C@@H]3CC=C4C[C@@H](O)CC[C@]4(C)[C@H]3CC[C@]12C", "note": "[27HC, 27-hydroxycholesterol]", "values": [{"measurement": "number of oligodendrocytes (nucleated CNPase+ cells per high power field)", "setting": "[2]", "result": "did not increase"}]}, {"compound": "CC(C)C(O)CC[C@@H](C)[C@H]1CC[C@H]2[C@@H]3CC=C4C[C@@H](O)CC[C@]4(C)[C@H]3CC[C@]12C", "note": "(stereo partly drawn) [24HC, 24-hydroxycholesterol]", "values": [{"measurement": "expression of oligodendrocyte-associated proteins CNPase and MBP", "setting": "[3]", "result": "induced expression"}, {"measurement": "cells polarized into the TH17 population", "setting": "[1]; 5 days culture", "result": 2.1, "unit": "%"}, {"measurement": "TH17 polarization (in words, FIG. 8)", "setting": "[1]", "result": "decrease"}, {"measurement": "number of oligodendrocytes (nucleated CNPase+ cells per high power field)", "setting": "[2]", "result": "increased number"}]}, {"compound": "CC(C)CC[C@@H](O)[C@@H](C)[C@H]1CC[C@H]2[C@@H]3CC=C4C[C@@H](O)CC[C@]4(C)[C@H]3CC[C@]12C", "note": "[22α-hydroxycholesterol]", "values": [{"measurement": "activation of the SHH pathway via direct binding to smoothened (SMO)", "setting": "[4]", "result": "activate"}]}, {"compound": "CC(C)CCC[C@](C)(O)[C@H]1CC[C@H]2[C@@H]3CC=C4C[C@@H](O)CC[C@]4(C)[C@H]3CC[C@@]21C", "note": "[20HC, 20α-Hydroxycholesterol]", "values": [{"measurement": "cells polarized into the TH17 population", "setting": "[1]; 5 days culture", "result": 2.2, "unit": "%"}, {"measurement": "TH17 polarization (in words, FIG. 8)", "setting": "[1]", "result": "decrease"}, {"measurement": "I-κB degradation", "setting": "[5]", "result": "blocked; also recorded: prevented"}, {"measurement": "phosphorylation of p65", "setting": "[5]", "result": "blocked; also recorded: prevented"}, {"measurement": "activation of the SHH pathway via direct binding to smoothened (SMO)", "setting": "[4]", "result": "activate"}, {"measurement": "development of MS-like symptoms", "setting": "[6]; 50 mg/kg/day subcutaneous, from two days prior to EAE induction through day 14", "result": "disrupted"}, {"measurement": "EAE clinical score", "setting": "[6]; compared to control mice over 46 days, p≤0.05", "result": "attenuation"}, {"measurement": "number of oligodendrocytes (nucleated CNPase+ cells per high power field)", "setting": "[2]", "result": "increased number"}]}, {"compound": "C[C@H](CCCC(C)(C)O)[C@H]1CC[C@H]2[C@@H]3CC=C4C[C@@H](O)CC[C@]4(C)[C@H]3CC[C@]12C", "note": "[25HC, 25-hydroxycholesterol]", "values": [{"measurement": "expression of oligodendrocyte-associated proteins CNPase and MBP", "setting": "[3]", "result": "induced expression"}, {"measurement": "cells polarized into the TH17 population", "setting": "[1]; higher doses", "result": 2.7, "unit": "%"}, {"measurement": "cells polarized into the TH17 population", "setting": "[1]; low doses", "result": 23.6, "unit": "%"}, {"measurement": "TH17 polarization (in words, FIG. 8)", "setting": "[1]; low doses", "result": "promote"}, {"measurement": "myelin integrity (fluoromyelin staining)", "setting": "[7]; 100 mg/kg/day for five days, compared to septic injured mice that received vehicle control", "result": "improved myelin integrity"}, {"measurement": "diffuse white matter injury", "setting": "[7]; septic injured neonatal mice", "result": "reversed"}, {"measurement": "numbers of mature oligodendrocytes (CC1+Olig2+)", "setting": "[7]; stereology, compared to septic injured mice, p<0.0001", "result": "significantly higher"}, {"measurement": "number of oligodendrocytes (nucleated CNPase+ cells per high power field)", "setting": "[2]", "result": "increased number"}]}, {"compound": "CC(C)CCC(O)[C@@H](C)[C@H]1CC[C@H]2[C@@H]3CC=C4C[C@@H](O)CC[C@]4(C)[C@H]3CC[C@]12C", "note": "(stereo partly drawn) [22HC, 22-hydroxycholesterol]", "values": [{"measurement": "number of oligodendrocytes (nucleated CNPase+ cells per high power field)", "setting": "[2]", "result": "increased number"}]}]}
